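Tested at 5 concentrations; 48 h exposure; 96-well plates; endpoints linearly interpolated, else capped at highest concentration. The concentration for 50% growth inhibition is given as GI50. TGI denotes the concentration required for complete inhibition of growth.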 Where a SMILES comes first, the peptide text is derived from it. Bridges are numbered along the chain shown (N, C = ends). [ ]: non-standard residue; d: D form. The star is where a group is joined. ξ: configuration not given here. ξDab(CH2SO3H) = NC(CCNCS(=O)(=O)O)C(=O)O; Heptanoyl(6-Me) = CC(C)CCCCC(=O)*; Dab = NCC[CH](N)C(=O)O

Consider 48 compounds from PubChem BioAssay (NCI).

The test relates to MDA-MB-468 breast. Nature of the test: NCI anticancer screen, dose series, 48 h.
For the compound `N#Cc1c(N2CCOCC2)nc(=S)[nH]c1-c1ccccc1`, the GI50 was 25800 nM and the TGI was more than 100000 nM.

With `N=C(N)SCc1c2ccccc2c(CSC(=N)N)c2ccccc12`, the GI50 is 2320 nM and the TGI is 9810 nM.

Regarding `COCCNc1ccc2c3c(cccc13)C(=O)N(CCN(C)C)C2=O`, the GI50 was 7100 nM and the TGI is more than 25000 nM.

For `CCOC(=O)Nc1nc2ccc(Br)cc2s1`, the GI50 is more than 50000 nM and the TGI is more than 50000 nM.

Consider `Cc1cc(O)cc(C)c1/C=C/c1cncc(C(N)=O)c1`, for which the GI50 was 749 nM and the TGI turned out to be 4620 nM.

Regarding `C=C1C(=O)O[C@H]2[C@H]1CC/C(C=Nc1c(N)cc(C(F)(F)F)cc1C(F)(F)F)=C\CC[C@@]1(C)O[C@@H]21`, the GI50 is 1500 nM and the TGI came out at 3210 nM.

Take `S=C(NCCNC(=S)[S][Sn]([c]1ccccc1)([c]1ccccc1)[c]1ccccc1)[S][Sn]([c]1ccccc1)([c]1ccccc1)[c]1ccccc1`: the GI50 is 12.9 nM and the TGI came out at 41.9 nM.

For `N/C(=N/N=C/c1ccccc1)N/N=C\c1ccccc1`, the GI50 is 2520 nM and the TGI worked out at 11300 nM.

Consider `COc1cc(C(=O)N2CCN(c3ccccc3)CC2)c2ccccc2n1`, for which the GI50 is 31.8 nM and the TGI turned out to be 211 nM.

As for `CN1CCC2(CC1)NC(=O)c1c(c3ccc(Cl)c(Cl)c3n1C)C2C#N` (stereo not given), the GI50 is 2180 nM and the TGI came to 6870 nM.

Regarding `O=C([O][Hg][CH2]C1OCCOC1[CH2][Hg][O]C(=O)c1ccccc1)c1ccccc1` (stereo not given), the GI50 is 1710 nM and the TGI is 3080 nM.

In the case of `Cc1nc(-c2nc(-c3ccc(OC(F)(F)F)cc3)no2)nn1Cc1cccc(N2CCC(S(C)(=O)=O)CC2)c1`, the GI50 was less than 10 nM and the TGI amounted to 3900 nM.

For `C=C1[C@@H](C)C2[C@H](Cc3ccccc3)NC(=O)[C@]23[C@H](OC(C)=O)/C=C/[C@@](C)(O)C(=O)[C@@H](C)C/C=C/[C@H]3[C@@H]1O` (stereo not given in full), the GI50 was 38.9 nM and the TGI was determined as 12700 nM.

Take `Cc1ccc2c(c1)c(Sc1ccc(C(=O)NO)cc1)c1n2CN(C)CC1`: the GI50 is 1100 nM and the TGI worked out at 2970 nM.

For `CCCCCCCCCCCCSC1=C(Cl)C(=O)C(OC)=C(OC)C1=O`, the GI50 is 438 nM and the TGI was found to be 16900 nM.

As for `COc1ccc(Nc2cc(C)nc(NCc3ccccc3)n2)cc1`, the GI50 was 776 nM and the TGI came out at 2510 nM.

Take `CC/C(=C(/c1ccc(O)cc1)c1ccc(OCCN)cc1)c1ccccc1`: the GI50 is 1570 nM and the TGI was found to be 3940 nM.

Regarding `C[C@@H](NC(=O)/C(C#N)=C/c1ccc([N+](=O)[O-])cc1)c1ccccc1`, the GI50 was 1740 nM and the TGI worked out at 3370 nM.

Consider `Cn1cc(C2=C(c3c4n(c5ccccc35)CCC(CN)C4)C(=O)NC2=O)c2ccccc21` (stereo not given), for which the GI50 was 2910 nM and the TGI is 6890 nM.

On to `N#C[Se]CCN1C(=O)C2C(C1=O)[C@H]1C=C[C@@H]2S1` (stereo not given in full), for which the GI50 was 2600 nM and the TGI was determined as 7710 nM.

Consider `O=C(Nc1ccc(-n2cc(-c3ccncc3)c(-c3ccc(O)c(Cl)c3)n2)cc1)Nc1ccc(Cl)c(C(F)(F)F)c1`, for which the GI50 was 2960 nM and the TGI came out at 13100 nM.

`COc1ccc2c(O)c(/C=C3\N=Nc4ccccc43)oc2c1C[C@@H]1CCNC[C@H]1F`: the GI50 was 10400 nM and the TGI amounted to 23600 nM.

Turning to `CCCCCCn1c(-c2ccc(C(=O)O/N=C(\N)c3ccc4ccccc4c3)cc2)nc(-c2ccccc2)c1-c1ccccc1`, the GI50 was 22200 nM and the TGI came to 97700 nM.

In the case of `CN(C)CCCOc1c2ccc(Cl)cc2nc2c1oc1ccccc12`, the GI50 is 1950 nM and the TGI worked out at 5070 nM.

In the case of `[Cl][Hg][c]1ccc(Cl)s1`, the GI50 is 1190 nM and the TGI stood at 2770 nM.

On to `Clc1ccc(Nc2ccnc(N3CCN(c4ccnc5cc(Cl)ccc45)CC3)n2)cc1`, for which the GI50 is 2080 nM and the TGI turned out to be 5560 nM.

As for `CC(=O)Nc1c(I)c(NC(C)=O)c(I)c(C(=O)O)c1I`, the GI50 is more than 100000 nM and the TGI was more than 100000 nM.

Regarding `CN1CCN(Cc2ccc(NC(=O)c3cncc(C#Cc4cnc5ccc(OCC(C)(C)O)nn45)c3)cc2C(F)(F)F)CC1`, the GI50 was 183 nM and the TGI is 409 nM.

As to `COc1cc(/C(=C2/O[C@@H]([C@H]3COC(C)(C)O3)[C@H]3OC(C)(C)O[C@@H]23)c2ccc3ccccc3c2)cc(OC)c1OC`, the GI50 is 4020 nM and the TGI came out at 21100 nM.

`CC[C@]12CC(C(=O)OC)=C3Nc4ccccc4[C@@]34CCN(C14)[C@@H]1c3cc4c(cc3O[C@@H]1[C@H]2O)NC1=C(C(=O)OC)C[C@@]2(CC)C3N(CC[C@@]143)C[C@H]1O[C@H]12` (stereo not given in full): the GI50 was 129 nM and the TGI was found to be 1050 nM.

On to `N#Cc1c(N)n2c(nc1=Nc1ccc(Cl)cc1)sc1cc(Cl)ccc12`, for which the GI50 was 3620 nM and the TGI was more than 100000 nM.

Take `COc1cccc(/C=N/NC(=O)c2ccccc2N2CCCC2)c1O`: the GI50 is 3330 nM and the TGI is more than 100000 nM.

In the case of `COc1cc2c(c(OC)c1OC)-c1ccc(OC)c(=O)cc1[C@@H](NC(C)=O)CC2`, the GI50 is less than 10 nM and the TGI is more than 100000 nM.

Take `Cc1ccc2c(n1)C(=O)C(Cl)=C(Nc1ccccc1C(=O)OC(C)(C)C)C2=O`: the GI50 was 1470 nM and the TGI came to 3250 nM.

Turning to `CCC(C)C1NC(=O)C(CCNCS(=O)(=O)O)NC(=O)C(NC(=O)C(CCNCS(=O)(=O)O)NC(=O)C(NC(=O)C(CCNCS(=O)(=O)O)NC(=O)CCCCC(C)C)C(C)O)CCNC(=O)C(C(C)O)NC(=O)C(CCNCS(=O)(=O)O)NC(=O)C(CCNCS(=O)(=O)O)NC(=O)C(C(C)CC)NC1=O` (stereo not given) ({Heptanoyl(6-Me)}-[ξDab(CH2SO3H)]T[ξDab(CH2SO3H)][Dab][ξDab(CH2SO3H)]II[ξDab(CH2SO3H)][ξDab(CH2SO3H)]T; lactam 4-C; configuration not given here), the GI50 was 807 nM and the TGI worked out at 4890 nM.

For `CCCCCCCCC/C(=N\NC(=O)c1ccncc1)c1ccc(O)c(O)c1O`, the GI50 was 161 nM and the TGI was 1110 nM.

With `CC[C@@H](C(=O)[C@H](C)[C@H](O)[C@@H](C)[C@H]1O[C@H]([C@@H](CC)C(=O)N(CC)CC)CC[C@H]1C)C1O[C@]2(C=C[C@@H](O)[C@]3(CC[C@@](C)([C@H]4CC[C@](O)(CC)[C@H](C)O4)O3)O2)[C@H](C)C[C@@H]1C` (stereo not given in full), the GI50 was 1810 nM and the TGI came to 5800 nM.

`COc1cc2ncnc(Nc3cccc(Cl)c3F)c2cc1OC(=O)N1CCN(C)C[C@H]1C`: the GI50 was 60.7 nM and the TGI came out at 1270 nM.

On to `CC(C)(C)[Si](C)(C)OC1[C@@H](O[Si](C)(C)C(C)(C)C)[C@@H](CNC(=O)NC(=O)CF)O[C@H]1n1cnc2c(NC(=O)Nc3ccccc3)ncnc21` (stereo not given in full), for which the GI50 was 3210 nM and the TGI was 20100 nM.

With `C[C@]12CC[C@@H]3c4cc(O)c(O)cc4CC[C@H]3[C@@H]1CC[C@@H]2O`, the GI50 was 3820 nM and the TGI is 21100 nM.

Consider `Cc1cc(Nc2ncc3c(n2)N(C)C(=O)N(c2cc(NC(=O)c4cccc(C(F)(F)F)c4)ccc2C)C3)n(C)n1`, for which the GI50 was 57.9 nM and the TGI was 396 nM.

For `O=C(/C(=C/c1ccc([N+](=O)[O-])cc1)SCc1ccc(Cl)cc1)c1ccc(F)cc1`, the GI50 is 2870 nM and the TGI was found to be 9220 nM.

Take `CCOC(=O)c1cc(C(=O)c2cc(OC)c(OC)c(OC)c2)n2c1ccc1ccccc12`: the GI50 was 158 nM.

`CCN1C(=O)N(CC)C2C1NN=c1s/c(=C\c3ccco3)c(=O)n12` (stereo not given): the GI50 was 356 nM and the TGI is more than 100000 nM.

For `Cn1nc(C(F)(F)F)cc1-c1c[nH]c(OCc2ccc(Cl)cc2)c(-c2ccc(Cl)c(C(F)(F)F)c2)c1=O`, the GI50 is 940 nM and the TGI stood at 4730 nM.

Turning to `COc1cc2c(cc1Cc1cccc(Cl)c1F)c(=O)c(C(=O)O)cn2[C@@H](CO)C(C)C`, the GI50 was 3260 nM and the TGI was determined as 9320 nM.

In the case of `O=[N+]([O-])c1ccc(C2CC(c3ccccc3)=Nc3ccccc3S2)cc1` (stereo not given), the GI50 was more than 100000 nM and the TGI was more than 100000 nM.

`CN(C)CCCCC(C(=O)CBr)(c1ccccc1)c1ccccc1`: the GI50 was 1090 nM and the TGI turned out to be 2890 nM.
